From patent US4900744A, “Antihypercholesterolemic 4,5-diaryl-2-substituted thioimidazoles” (E. I. Du Pont de Nemours and Company, priority 1988, dated 1990)

Key:
[1] = test system: J774 cells; experiment: Inhibition of Cholesterol Esterification in Mammalian Cells (macrophage-like cell line J774); assay type: cell-based; conditions: Mus musculus; murine macrophage-like cell line J774, +LDL (200 μg/ml), 14C-oleic acid incorporation into cholesteryl ester
Description: The esterification of cholesterol was determined in the murine macrophage-like cell line J774. J774 cells were placed in 60 mm dishes at a density of 200,000 cells per dish in 3.0 ml of Dulbecco's minimal essential medium (DMEM) containing 10% Fetal bovine serum. Cells were incubated at 37° C. in an atmosphere of 5% CO2 and 93% humidity. After 24 hr, the cells were washed with 2 ml of Hanks buffered saline and the media changed to 1.5 ml of DMEM containing 1% Cabosil® treated serum (CTS) to up-regulate LDL receptors. At 56 hr, fresh media that contained 1% CTS was added to the cells; in all but control dishes the media contained 200 μg LDL/ml to increase the intracellular concentration of cholesterol and promote esterification. At 72 hr, various inhibitors were added to the cells in DMSO (10 μl/ml maximum). At 74 hr, the cells were pulsed with 0.1 mM ^14 C-oleic acid (20,000 dpm/nmol) complexed with bovine serum albumin (BSA) to follow cholesteryl ester formation. The experiment was terminated at 76 hrs by washing the monolayers 3 times with 3 ml of Tris-buffered saline at 4° C. The lipids were extracted by incubating the monolayers with 1.5 ml of hexane: isopropanol (3:2, v/v) for 30 mins under gentle agitation. During this period, 20,000 dpm ^3 H-cholesteryl linoleate and 10 μg of cholesteryl oleate were added as an internal standard and carrier respectively. The organic solvent was removed and the cells were washed with an additional 1.0 ml of hexane: isopropanol which was combined with the original extract. The cells were allowed to dry overnight, digested with 1.5 ml of 0.2 N sodium hydroxide for 1 hr, and an aliquot of the solubilized protein used for protein determination using the Lowry method. The organic extract was taken to dryness, the residue resuspended in 100 μl of chloroform and the lipids separated on silica gel impregnated glass fiber plates using a hexane: diethyl ether: acetic acid (170:30:1, v/v/v) solvent system. The cholesteryl ester spot was visualized with iodine, cut out, and transferred to scintillation vials to determine the amount of radioactivity. The conversion of oleic acid to cholesteryl ester in the control averaged 0.54 nmol/hr/mg protein and was increased upon the addition of LDL to about 2.37 nmol/hr/mg protein. Inhibition of esterification by various compound was determined by dividing the specific activity (+LDL) in the presence of the inhibitor by the specific activity (+LDL) of the vehicle alone times 100% -100.

[2] = biological target: acyl-CoA:cholesterol acyltransferase (ACAT); experiment: Inhibition of Acyl CoA:Cholesterol Acyltransferase (ACAT) in Hepatic Microsomes; assay type: biochemical, rat (male Sprague Dawley); conditions: rat hepatic microsomes, 75 μM 14C-oleoyl-CoA, pH 7.4, 37° C., 15 min preincubation, 10 min assay; read-out: IC50 In Vitro ACAT
Description: The ability of the compounds of this invention to inhibit ACAT, the enzyme responsible for the intracellular synthesis of cholesteryl esters, was tested as follows. Male Sprague Dawley rats weighing 150-300 g were fed rat chow ad libitum. The animals were fasted for twenty-four hours prior to being sacrificed by decapitation. The livers were perfused in situ with 50 ml of cold 0.25 M sucrose, excised, and homogenized in three volumes of 0.1 M phosphate buffer, pH 7.4 containing 0.5 mM EDTA (ethylenediaminetetraacetic acid), 1.0 mM glutathione, 0.25 M sucrose and 20 μM leupeptin. Microsomes were obtained by differential centrifugation; the supernatant from an initial spin at 15,000×g. for 15 minutes (which removed cell debris and mitochondria) was centrifuged at 105,000×g. for 1 hr to pellet the microsomes. The microsomes were suspended in homogenization buffer reisolated by centrifugation and stored at -70° C. Microsomes were used within one month of preparation.
The control assay in a final volume of 200 μl consisted of 200 μg of microsomal protein, 75 μM ^14 C-oleoyl-CoA (10,000 dpm/nmol) in 0.1 M phosphate, pH 7.4 containing 1 mM glutathione. Compounds were added in 5-10 μl of DMSO (dimethyl sulfoxide) and additional controls were run with DMSO only. All components, except the radiolabeled oleoyl-CoA, were preincubated for 15 min at 37° C. prior to the initiation of the reaction by addition of radiolabeled oleoyl-CoA. The assay was terminated after 10 min by the addition of 500 μl of hexane: isopropanol (3:2, v/v). 20,000 dpm of ^3 H-cholesteryl oleate and 10 μg of unlabeled cholesteryl oleate and oleic acid were added as an internal standard and carriers, respectively. After allowing 10 min for lipid extraction, the samples were centrifuged at 1,000×g for 10 mins to separate the solvent layers. 200 μl of the top (hexane) layer containing the neutral lipids was spotted onto a Baker SI250-Pa silica gel TLC plate and the plate developed using a hexane: diethyl ether: acetic acid (170:30:1 v/v/v) mobile phase. The lipids were visualized by their interaction with iodine vapor and the cholesteryl ester spot was scraped into a scintillation vial and the radioactivity on the gel was determined by standard liquid scintillation spectrometry. The specific activity of ACAT in control microsomes averaged 260 pmol/min/mg microsomal protein. The % inhibition of the various compounds was the ACAT activity in the presence of the inhibitor divided by the activity of the control (vehicle alone) times 100%-100.

CCOC(=O)CCCCCCCSc1nc(-c2ccccc2)c(-c2ccccc2)[nH]1 [Example 1, 8-(4,5-Diphenyl-1H-imidazol-2-ylthio)octanoic acid ethyl ester] showed an IC50 [1] of 19 µM and an IC50 [2] of 2000 nM.
For CCOC(=O)CCCCCCCCCCSc1nc(-c2ccccc2)c(-c2ccccc2)[nH]1 [Example 2, 11-(4,5-Diphenyl-1H-imidazol-2-ylthio)undecanoic acid ethyl ester], the IC50 [1] was 17 µM and the IC50 [2] was 1000 nM.
Work on O=C(O)CCCCCCCSc1nc(-c2ccccc2)c(-c2ccccc2)[nH]1 [Example 57, 8-(4,5-Diphenyl-1H-imidazol-2-ylthio)octanoic acid] yielded an IC50 [1] of 80 µM and an IC50 [2] of 2000 nM.
O=C(O)CCCCCCCCCCSc1nc(-c2ccccc2)c(-c2ccccc2)[nH]1 [Example 58, 11-(4,5-Diphenyl-1H-imidazol-2-ylthio)undecanoic acid] showed an IC50 [1] of 17 µM and an IC50 [2] of 1000 nM.
Work on O=C(O)CCCCCCCOc1nc(-c2ccccc2)c(-c2ccccc2)n1-c1ccccc1 [Octimibate, reference compound] yielded an IC50 [1] of 78 µM and an IC50 [2] of 23000 nM.
